One data set deals with rat plasma protein. Briefly: Rat plasma protein binding.
In another data set the test system is human plasma protein. The data set is described as follows: Human plasma protein binding.
Data set [1] has as its system DENV. Briefly: DENV in-cell western assay in Huh7.5 cells. The conditions noted are these: DENV infected Huh7.5 cells, side-by-side comparison, Figure 5A. Format: cell-based, dengue virus.
Data set [2] concerns human CYP450s (1A2, 2C9, 2C19, 2D6, and 3A4). Briefly: Inhibition of five major human CYP450s. The conditions noted are these: 10 μM.
The next data set deals with mouse plasma protein. The data set is described as follows: Mouse plasma protein binding.
Data set [3] has as its system DENV. The data set is described as follows: DENV virus yield reduction assay in BHK cells. Format: cell-based, dengue virus (serotype 2, New Guniea C strain). Conditions: 0.8 to 20 μM, Figure 5B.
A short description of data set [4]: MTT cytotoxicity assay in BHK cells. The conditions noted are these: hamster. (In general: Formazan colour is commonly taken as a measure of viable cells.)
Data set [5] concerns DENV. The conditions noted are these: DENV infected AG129 mice; cited from earlier work.

The values below come from publication PMC3395807 (Journal of Medicinal Chemistry, 2012).

Entries after “also recorded” stand apart in the source; their conditions may differ.

Regarding `CCCC(CCC)OCCCCCCN1C[C@H](O)[C@@H](O)[C@H](O)[C@H]1CO` [Compound 1c], the “Rat Plasma Protein Binding” value with rat plasma protein is given as 77 % bound. Also, in the data set with human plasma protein, the “Human Plasma Protein Binding” value came to 91 % bound.
With `OC[C@@H]1[C@@H](O)[C@H](O)[C@@H](O)CN1CCCCCCOC1CCCCCC1` [Compound 2l, (2R,3R,4R,5S)-1-(6-(Cycloheptyloxy)hexyl)-2-(hydroxymethyl)piperidine-3,4,5-triol], the “Rat Plasma Protein Binding” value in the data set on rat plasma protein amounted to 65 % bound. Also, the “Human Plasma Protein Binding” value in the data set with human plasma protein is recorded as 71 % bound. Besides, the “antiviral activity in in-cell western assay” value (shortened to “antiviral activity”) in the data set with DENV [1] was “much improved antiviral activity compared to compound 7”.
In the case of `Cc1cccc(OCCCCCCN2C[C@H](O)[C@@H](O)[C@H](O)[C@H]2CO)c1` [Compound 3c], in the data set on rat plasma protein, the “Rat Plasma Protein Binding” value was 79 % bound. Moreover, the “Human Plasma Protein Binding” value in the data set on human plasma protein is 80 % bound.
As to `OC[C@@H]1[C@@H](O)[C@H](O)[C@@H](O)CN1CCCCCCOc1cccc(F)c1` [Compound 3j, (2R,3R,4R,5S)-1-(6-(3-Fluorophenoxy)hexyl)-2-(hydroxymethyl)piperidine-3,4,5-triol], in the data set with rat plasma protein, the “Rat Plasma Protein Binding” value stood at 71 % bound. In addition, in data set [2], the “inhibition on any of the five major drug metabolizing human CYP450s” value (from here on “inhibition on any”) is recorded as “no inhibition”. Besides, the “Human Plasma Protein Binding” value in the data set on human plasma protein was 78 % bound. In addition, in the data set with DENV [1], the “antiviral activity” value was “much improved antiviral activity compared to compound 7”. Also, in the data set on mouse plasma protein, the “Mouse Plasma Protein Binding” value is on record as 79 % bound.
With `OC[C@@H]1[C@@H](O)[C@H](O)[C@@H](O)CN1CCCCCCOc1cc(F)ccc1F` [Compound 3l, (2R,3R,4R,5S)-1-(6-(2,5-Difluorophenoxy)hexyl)-2-(hydroxymethyl)piperidine-3,4,5-triol], the “Rat Plasma Protein Binding” value with rat plasma protein stood at 68 % bound. In addition, in the data set on human plasma protein, the “Human Plasma Protein Binding” value is on record as 74 % bound. Further, in the data set with DENV [3], the “reduction of DENV titers” value is reported as “being the most potent”. For the same compound, the “antiviral activity” value in the data set on DENV [1] was “much improved antiviral activity compared to compound 7; also recorded: the most potent one”. For the same compound, in the data set with mouse plasma protein, the “Mouse Plasma Protein Binding” value turned out to be 77 % bound.
Take `OC[C@@H]1[C@@H](O)[C@H](O)[C@@H](O)CN1CCCCCCOc1cccc(C(F)(F)F)c1` [Compound 3p]: the “Rat Plasma Protein Binding” value in the data set on rat plasma protein is reported as 90 % bound. Besides, the “Human Plasma Protein Binding” value with human plasma protein is on record as 93 % bound.
Consider `COc1ccccc1OCCCCCCN1C[C@H](O)[C@@H](O)[C@H](O)[C@H]1CO` [Compound 3s], for which the “Rat Plasma Protein Binding” value in the data set on rat plasma protein stood at 70 % bound. Also, the “inhibition on any” value in data set [2] is reported as “no inhibition”. In the data set with human plasma protein, the “Human Plasma Protein Binding” value is 65 % bound.
Consider `OC[C@@H]1[C@@H](O)[C@H](O)[C@@H](O)CN1CCCCCCOCc1ccccc1` [Compound 3v, (2R,3R,4R,5S)-1-(6-(Benzyloxy)hexyl)-2-(hydroxymethyl)piperidine-3,4,5-triol], for which the “Rat Plasma Protein Binding” value in the data set with rat plasma protein was found to be 49 % bound. In data set [2], the “inhibition on any” value was “no inhibition”. Also, the “Human Plasma Protein Binding” value in the data set on human plasma protein is listed as 52 % bound. In addition, the “antiviral activity” value in the data set with DENV [1] is “much improved antiviral activity compared to compound 7”.
As to `CCCOc1cccc(CCCN2C[C@H](O)[C@@H](O)[C@H](O)[C@H]2CO)c1` [Compound 4b, (2R,3R,4R,5S)-2-(Hydroxymethyl)-1-(3-(3-propoxyphenyl)propyl)piperidine-3,4,5-triol], the “Rat Plasma Protein Binding” value in the data set with rat plasma protein is reported as 57 % bound. Moreover, in data set [2], the “inhibition on any” value is on record as “no inhibition”. Besides, the “Human Plasma Protein Binding” value in the data set on human plasma protein was 68 % bound. In the data set on DENV [1], the “antiviral activity” value was “much improved antiviral activity compared to compound 7”.
What is called CC50 is the concentration giving 50% cytotoxicity. A higher CC50 goes with lower toxicity to the cells. `OC[C@@H]1[C@@H](O)[C@H](O)[C@@H](O)CN1CC/C=C\CCOc1cc(F)ccc1F` [Compound 5c, (2R,3R,4R,5S)-1-((Z)-6-(2,5-Difluorophenoxy)hex-3-en-1-yl)-2-(hydroxymethyl)piperidine-3,4,5-triol] returned a CC50 in data set [4] of over 500 µM.
For `CCC(O)(CC)CCCCCCN1C[C@H](O)[C@@H](O)[C@H](O)[C@H]1CO` [Compound 7, (2R,3R,4R,5S)-1-(7-Ethyl-7-hydroxynonyl)-2-(hydroxymethyl)piperidine-3,4,5-triol], the “Rat Plasma Protein Binding” value with rat plasma protein was found to be 30 % bound. For the same compound, the “Human Plasma Protein Binding” value in the data set on human plasma protein is 33 % bound. For the same compound, the “in vivo antiviral efficacy (viremia)” value in the data set with DENV [5] is “reducing viremia”.
